Columns and labels:
Assay in all cases: ProQinase radiometric kinase panel
Conditions in all cases: mean of 2 exp.
PDK1 = PDK1 (Homo sapiens, UniProt O15530)
ITK = ITK (Homo sapiens, UniProt Q08881)
BTK = BTK (Homo sapiens, UniProt Q06187)
BTK, sequence (Q06187 whole entry): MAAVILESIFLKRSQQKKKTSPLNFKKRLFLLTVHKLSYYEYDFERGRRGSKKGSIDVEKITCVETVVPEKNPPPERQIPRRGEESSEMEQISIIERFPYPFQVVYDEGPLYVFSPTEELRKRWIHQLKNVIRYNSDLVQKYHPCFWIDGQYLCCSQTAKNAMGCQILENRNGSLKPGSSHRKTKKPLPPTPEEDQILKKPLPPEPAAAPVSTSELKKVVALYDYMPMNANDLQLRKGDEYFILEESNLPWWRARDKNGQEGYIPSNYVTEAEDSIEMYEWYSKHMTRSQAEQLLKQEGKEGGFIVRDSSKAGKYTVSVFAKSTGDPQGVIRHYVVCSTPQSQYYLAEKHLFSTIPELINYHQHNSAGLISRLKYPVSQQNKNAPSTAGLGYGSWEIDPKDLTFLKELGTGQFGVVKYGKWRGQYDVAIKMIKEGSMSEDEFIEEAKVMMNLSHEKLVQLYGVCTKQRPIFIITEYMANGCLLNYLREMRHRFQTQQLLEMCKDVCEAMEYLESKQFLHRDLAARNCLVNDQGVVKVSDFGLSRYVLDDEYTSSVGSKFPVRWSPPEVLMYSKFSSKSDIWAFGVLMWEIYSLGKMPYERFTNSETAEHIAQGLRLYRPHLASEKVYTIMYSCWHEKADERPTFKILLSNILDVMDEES

ITK, sequence (Q08881 whole entry): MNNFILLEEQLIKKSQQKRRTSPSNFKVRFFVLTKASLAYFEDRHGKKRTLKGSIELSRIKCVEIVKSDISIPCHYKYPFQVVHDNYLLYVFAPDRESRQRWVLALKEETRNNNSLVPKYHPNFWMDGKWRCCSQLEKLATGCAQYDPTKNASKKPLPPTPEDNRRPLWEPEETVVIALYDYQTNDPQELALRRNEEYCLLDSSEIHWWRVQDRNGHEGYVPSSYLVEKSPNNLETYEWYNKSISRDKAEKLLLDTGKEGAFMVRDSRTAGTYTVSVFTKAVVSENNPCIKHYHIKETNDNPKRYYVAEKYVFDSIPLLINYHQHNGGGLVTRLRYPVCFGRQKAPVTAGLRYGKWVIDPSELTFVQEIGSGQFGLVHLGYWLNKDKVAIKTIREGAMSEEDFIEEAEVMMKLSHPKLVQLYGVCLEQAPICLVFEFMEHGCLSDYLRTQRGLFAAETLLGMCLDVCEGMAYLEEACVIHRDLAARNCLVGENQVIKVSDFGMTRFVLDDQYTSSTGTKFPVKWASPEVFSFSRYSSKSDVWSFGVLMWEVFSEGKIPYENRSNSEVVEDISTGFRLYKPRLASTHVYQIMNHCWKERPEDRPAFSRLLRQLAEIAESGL
PDK1, sequence (O15530 whole entry): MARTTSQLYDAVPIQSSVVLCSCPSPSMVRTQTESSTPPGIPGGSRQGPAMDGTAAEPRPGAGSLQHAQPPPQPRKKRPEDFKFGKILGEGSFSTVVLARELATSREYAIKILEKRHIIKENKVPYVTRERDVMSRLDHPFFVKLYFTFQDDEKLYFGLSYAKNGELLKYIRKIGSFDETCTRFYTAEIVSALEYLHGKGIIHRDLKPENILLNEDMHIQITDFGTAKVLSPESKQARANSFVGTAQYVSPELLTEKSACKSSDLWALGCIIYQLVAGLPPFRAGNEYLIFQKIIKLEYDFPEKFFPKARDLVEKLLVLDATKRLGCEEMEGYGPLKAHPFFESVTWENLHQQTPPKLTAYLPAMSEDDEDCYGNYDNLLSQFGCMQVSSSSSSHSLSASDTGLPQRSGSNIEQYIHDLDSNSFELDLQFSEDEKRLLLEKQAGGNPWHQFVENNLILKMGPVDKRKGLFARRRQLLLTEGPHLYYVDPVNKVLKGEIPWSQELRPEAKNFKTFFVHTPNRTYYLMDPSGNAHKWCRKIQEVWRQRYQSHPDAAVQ

`COc1ccc2c3ccnc(Cl)c3n(CC#N)c2c1` [AnnH75] was tested. Which “residual activity at 1 µM, Mean” value (PDK1) did it give?
The value was 99 % of control.

And the “residual activity at 1 µM, Mean” value (ITK)?
Its value is 95 % of control.

What about the “residual activity at 1 µM, Mean” value (BTK) of the same compound?
Its value is 96 % of control.

Source: PMC4508061, “Selectivity Profiling and Biological Activity of Novel β-Carbolines as Potent and Selective DYRK1 Kinase Inhibitors” (PLoS ONE, 2015)
